Reference: PMC10709440, “High-throughput ligand profile characterization in novel cell lines expressing seven heterologous insect olfactory receptors for the detection of volatile plant biomarkers” (Scientific Reports, 2023)
Where “and” joins values, the source holds several entries; their conditions need not be identical. Identical values can stand only once. Like-named read-outs stand apart in the source and are kept apart here.

How the values were obtained:
OR10a = tested on: OR10a; design: method as in earlier work; conditions: DoOR database value; ref DoOR; cited from earlier work
OR13a = tested on: OR13a; design: method as in earlier work; conditions: DoOR database value; ref DoOR; cited from earlier work
OR49b = tested on: OR49b; design: method as in earlier work; conditions: DoOR database value; ref DoOR; cited from earlier work
OR47a = tested on: OR47a; design: method as in earlier work; conditions: DoOR database value; ref DoOR; cited from earlier work
OR98a = tested on: OR98a; design: method as in earlier work; conditions: DoOR database value; ref DoOR; cited from earlier work
OR85b = tested on: OR85b; design: method as in earlier work; conditions: DoOR database value; ref DoOR; cited from earlier work
Drosophila OR13a = target: T1, Drosophila OR13a (Drosophila melanogaster, UniProt Q9VXL0); assay: Calcium ion fluorescence (GCaMP6) assay, OR13a stable HEK293 cell line; format: cell-based
T1 construct: expressed in transfected cells
T1 sequence (Q9VXL0 1-418): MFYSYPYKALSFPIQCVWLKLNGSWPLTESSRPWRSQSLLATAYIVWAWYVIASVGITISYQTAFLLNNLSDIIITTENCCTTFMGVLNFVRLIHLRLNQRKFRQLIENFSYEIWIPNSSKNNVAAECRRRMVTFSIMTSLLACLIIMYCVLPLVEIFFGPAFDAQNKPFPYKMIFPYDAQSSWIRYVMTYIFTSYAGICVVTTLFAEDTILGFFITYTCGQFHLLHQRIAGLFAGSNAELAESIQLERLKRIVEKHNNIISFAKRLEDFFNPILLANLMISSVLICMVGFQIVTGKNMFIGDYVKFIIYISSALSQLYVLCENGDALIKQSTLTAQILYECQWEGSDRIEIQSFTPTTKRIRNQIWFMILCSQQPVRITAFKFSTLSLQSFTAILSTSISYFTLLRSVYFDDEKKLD
T1 sequence (Q9VNB5 1-486 partner): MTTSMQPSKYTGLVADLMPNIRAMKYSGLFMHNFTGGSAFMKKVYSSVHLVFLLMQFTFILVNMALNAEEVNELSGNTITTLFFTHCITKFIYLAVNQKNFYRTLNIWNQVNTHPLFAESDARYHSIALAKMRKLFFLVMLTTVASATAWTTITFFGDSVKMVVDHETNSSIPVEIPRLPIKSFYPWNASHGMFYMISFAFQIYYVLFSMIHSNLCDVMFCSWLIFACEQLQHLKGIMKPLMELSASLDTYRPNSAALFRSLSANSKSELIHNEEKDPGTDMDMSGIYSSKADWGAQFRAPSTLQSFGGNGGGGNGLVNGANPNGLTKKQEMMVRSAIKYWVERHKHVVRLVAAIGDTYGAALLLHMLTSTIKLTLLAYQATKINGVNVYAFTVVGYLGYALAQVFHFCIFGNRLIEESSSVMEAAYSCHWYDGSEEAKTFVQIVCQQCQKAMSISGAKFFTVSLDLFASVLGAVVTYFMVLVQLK
Method in brief: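 HEK293 lines stably expressing each Drosophila OR with GCaMP6, doxycycline-induced (1 μg/mL) 48 or 72 h. Fluorescence recorded 5 s baseline then 30 s after VOC injection at pH 7.3; ΔF=(FMAX−F0)/F0, normalized to 50 µM VUAA1 response per line, triplicate wells averaged; concentration series 0.01–100 μM.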

[1] = HEK293, read-out: OR13a Average response (VUAA1-normalized), 1 μM VOC, 50 μM VUAA1 = 1, responses not exceeding 0.05 considered 0
[2] = HEK293, read-out: OR13a Average response (VUAA1-normalized), 10 μM VOC, 50 μM VUAA1 = 1, responses not exceeding 0.05 considered 0
[3] = HEK293, read-out: OR13a Average response (VUAA1-normalized), 100 μM VOC, 50 μM VUAA1 = 1, responses not exceeding 0.05 considered 0
[4] = HEK293, read-out: OR13a response (VUAA1-normalized response), VOC concentration 1 μM
[5] = HEK293, read-out: OR13a response (VUAA1-normalized response), VOC concentration 10 μM
[6] = HEK293, read-out: OR13a response (VUAA1-normalized response), VOC concentration 100 μM
[7] = ligand concentration 1 (unit not given), threshold 0.05, below shown as 0
[8] = ligand concentration 10 (unit not given), threshold 0.05, below shown as 0
[9] = ligand concentration 100 (unit not given), threshold 0.05, below shown as 0

C=CC(O)CCCCC (centres unmarked) [1-octen-3-ol]
OR10a DoOR response (OR10a): 0.019
OR13a DoOR response (OR13a): 0.78
OR49b DoOR response (OR49b): 0.016
OR47a DoOR response (OR47a): 0.25
OR98a DoOR response (OR98a): 0.58
OR85b DoOR response (OR85b): 0.53
EC50 (Drosophila OR13a; AVERAGE EC50, the 12th table, corresponds to average EC50, given with 95% confidence interval): 1.44 µM
EC50 (Drosophila OR13a; EC50, AVERAGE of replicate fits, the 12th table, N 5): 1.44 µM
EC50 (Drosophila OR13a; EC50, AVERAGE of replicate fits, the 12th table, arithmetic average, N 5): 1.63 µM
EC50 (Drosophila OR13a; EC50, OR13a cell line, fitted Hill equation, Hill coefficient constrained to 1, maximal response max 1): 1.44 µM
EC50 (Drosophila OR13a; EC50, fitted average curve, the 12th table, fit to the average curve, n 0.854956): 1.41 µM
EC50 (Drosophila OR13a; EC50, fitted parameter per biological replicate, the 12th table, OR13a D-R 1-octen-3-ol, individual replicate fits, MIN 0, n 1): 2.37 µM and 2.3 µM and 0.753 µM and 1.97 µM and 0.761 µM
EC50 (Drosophila OR13a; EC50, fitted parameter per biological replicate, the 12th table, individual replicate fits): 2.37 µM and 2.3 µM and 0.753 µM and 1.97 µM and 0.761 µM
activation at 1 µM (Drosophila OR13a; [1]): 31%
activation at 10 µM (Drosophila OR13a; [2]): 41%
activation at 100 µM (Drosophila OR13a; [3]): 38%
activation at 1 µM (Drosophila OR13a; [4]): 31%
activation at 10 µM (Drosophila OR13a; [5]): 41%
activation at 100 µM (Drosophila OR13a; [6]): 38%
Emax (Drosophila OR13a; HEK293, read-out: VUAA1 normalized MAX response): 46%
DF norm AVERAGE OR13a (Drosophila OR13a; concentration 1, normalized fluorescence change, values below 0.05 threshold given as 0): 0.3125
DF norm AVERAGE OR13a (Drosophila OR13a; concentration 10, normalized fluorescence change, values below 0.05 threshold given as 0): 0.4133
DF norm AVERAGE OR13a (Drosophila OR13a; concentration 100, normalized fluorescence change, values below 0.05 threshold given as 0): 0.3797
dose-response, response per biological replicate (Drosophila OR13a; the 12th table, VOC concentration 0.15): 0 (2×) and 0.1313
dose-response, AVERAGE response (Drosophila OR13a; the 12th table, VOC concentration 0.15, N 3): 0.04376
dose-response, response per biological replicate (Drosophila OR13a; the 12th table, VOC concentration 0.3): 0 (3×) and 0.1249 and 0.1272
dose-response, AVERAGE response (Drosophila OR13a; the 12th table, VOC concentration 0.3, N 5): 0.0504
dose-response, response per biological replicate (Drosophila OR13a; the 12th table, VOC concentration 0.6): 0 (2×) and 0.1801 and 0.08156 and 0.213
dose-response, AVERAGE response (Drosophila OR13a; the 12th table, VOC concentration 0.6, N 5): 0.09494
dose-response, response per biological replicate (Drosophila OR13a; the 12th table, VOC concentration 1.25): 0.2071 and 0.2793 and 0.1886 and 0.3516
dose-response, AVERAGE response (Drosophila OR13a; the 12th table, VOC concentration 1.25, N 4): 0.2566
dose-response, response per biological replicate (Drosophila OR13a; the 12th table, VOC concentration 2.5): 0.2646 and 0.1888 and 0.4175 and 0.197 and 0.3823
dose-response, AVERAGE response (Drosophila OR13a; the 12th table, VOC concentration 2.5, N 5): 0.2901
dose-response, response per biological replicate (Drosophila OR13a; the 12th table, VOC concentration 5): 0.42 and 0.3195 and 0.4159 and 0.2978 and 0.4731
dose-response, AVERAGE response (Drosophila OR13a; the 12th table, VOC concentration 5, N 5): 0.3853
dose-response, response per biological replicate (Drosophila OR13a; the 12th table, VOC concentration 10): 0.4322 and 0.4316 and 0.4215 and 0.2626 and 0.4446
dose-response, AVERAGE response (Drosophila OR13a; the 12th table, VOC concentration 10, N 5): 0.3985
dose-response, response per biological replicate (Drosophila OR13a; the 12th table, VOC concentration 20): 0.4616 and 0.4143 and 0.5545 and 0.335 and 0.5659
dose-response, AVERAGE response (Drosophila OR13a; the 12th table, VOC concentration 20, N 5): 0.4662
dose-response, response per biological replicate (Drosophila OR13a; the 12th table, VOC concentration 40): 0.4507 and 0.4868 and 0.5125 and 0.286 and 0.5426
dose-response, AVERAGE response (Drosophila OR13a; the 12th table, VOC concentration 40, N 5): 0.4557
dose-response, response per biological replicate (Drosophila OR13a; the 12th table, VOC concentration 60): 0.3021 and 0.4978 and 0.4725 and 0.5843
dose-response, AVERAGE response (Drosophila OR13a; the 12th table, VOC concentration 60, N 4): 0.4642
dose-response, response per biological replicate (Drosophila OR13a; the 12th table, VOC concentration 80): 0.4797 and 0.3236 and 0.407 and 0.4017 and 0.4897
dose-response, AVERAGE response (Drosophila OR13a; the 12th table, VOC concentration 80, N 5): 0.4203
dose-response, response per biological replicate (Drosophila OR13a; the 12th table, VOC concentration 100): 0.3778 and 0.3442 and 0.2898 and 0.4501
dose-response, AVERAGE response (Drosophila OR13a; the 12th table, VOC concentration 100, N 4): 0.3654
AVERAGE MAX (Drosophila OR13a; the 12th table, average of replicate fits, N 5): 0.459
MAX, fitted average curve (Drosophila OR13a; the 12th table, fit to the average curve, n 0.854956): 0.4618
MAX, fitted parameter per biological replicate (Drosophila OR13a; the 12th table, individual replicate fits): 0.5125 and 0.4135 and 0.4717 and 0.37 and 0.5273

C=CCc1ccc(O)c(OC)c1 [eugenol]
OR10a DoOR response (OR10a): 0.15
OR13a DoOR response (OR13a): 0.024
OR49b DoOR response (OR49b): 0.002
OR47a DoOR response (OR47a): -0.013
OR98a DoOR response (OR98a): 0.15
OR85b DoOR response (OR85b): 0.053
activation at 1 µM (Drosophila OR13a; [1]): 0%
activation at 10 µM (Drosophila OR13a; [2]): 0%
activation at 100 µM (Drosophila OR13a; [3]): 0%
activation at 1 µM (Drosophila OR13a; [4]): 0%
activation at 10 µM (Drosophila OR13a; [5]): 0%
activation at 100 µM (Drosophila OR13a; [6]): 0%
DF norm AVERAGE OR13a (Drosophila OR13a; [7]): 0
DF norm AVERAGE OR13a (Drosophila OR13a; [8]): 0
DF norm AVERAGE OR13a (Drosophila OR13a; [9]): 0

CCCC(=O)OCC [ethyl butyrate]
OR10a DoOR response (OR10a): 0.025
OR13a DoOR response (OR13a): 0.11
OR49b DoOR response (OR49b): -0.002
OR47a DoOR response (OR47a): 0.26
OR98a DoOR response (OR98a): 0.25
OR85b DoOR response (OR85b): 0.21
activation at 1 µM (Drosophila OR13a; [1]): 0%
activation at 10 µM (Drosophila OR13a; [2]): 0%
activation at 100 µM (Drosophila OR13a; [3]): 0%
activation at 1 µM (Drosophila OR13a; [4]): 0%
activation at 10 µM (Drosophila OR13a; [5]): 0%
activation at 100 µM (Drosophila OR13a; [6]): 0%
DF norm AVERAGE OR13a (Drosophila OR13a; [7]): 0
DF norm AVERAGE OR13a (Drosophila OR13a; [8]): 0
DF norm AVERAGE OR13a (Drosophila OR13a; [9]): 0
